What was measured:
IRAK4 = biological target: T1, IRAK4 (Homo sapiens, UniProt Q9NWZ3); assay: IRAK-4 activity inhibition assay (Caliper); format: biochemical; details: 3.5 nM IRAK4, 37 μM ATP, 1.5 μM Peptide 8
T1 construct: purchased CARNA Bioscience 09-145
T1 sequence (Q9NWZ3 1-460): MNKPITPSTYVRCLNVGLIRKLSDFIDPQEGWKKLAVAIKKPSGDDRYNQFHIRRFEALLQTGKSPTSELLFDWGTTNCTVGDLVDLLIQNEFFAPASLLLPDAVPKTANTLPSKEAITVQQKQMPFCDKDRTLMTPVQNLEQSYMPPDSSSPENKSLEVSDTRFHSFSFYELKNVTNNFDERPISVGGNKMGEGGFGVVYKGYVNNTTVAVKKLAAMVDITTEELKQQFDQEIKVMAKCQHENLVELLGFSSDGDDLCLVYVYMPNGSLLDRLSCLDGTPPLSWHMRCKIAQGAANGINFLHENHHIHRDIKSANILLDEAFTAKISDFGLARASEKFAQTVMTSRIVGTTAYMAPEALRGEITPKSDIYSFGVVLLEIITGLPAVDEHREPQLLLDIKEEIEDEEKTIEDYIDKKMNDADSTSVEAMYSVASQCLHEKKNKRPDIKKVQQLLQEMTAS
Procedure: A 1× kinase base buffer was prepared from 50 mM HEPES, pH 7.5 and 0.0015% Brij-35. A stop buffer was prepared from 100 mM HEPES, pH 7.5, 0.015% Brij-35, 0.2% Coating Reagent #3, and 50 mM EDTA.
Test compound was diluted to 50× of the final desired highest inhibitor concentration in reaction by 100% DMSO. 100 ul of this compound dilution was transferred to a well in a 96-well plate.
Test compound was serially diluted by transferring 30 μl to 60 μl of 100% DMSO in the next well and so forth for a total of 10 concentrations. 100 μl of 100% DMSO was added to two empty wells for no compound control and no enzyme control in the same 96-well plate.
A new 96-well plate was marked as intermediate plate. 5 μl of compound serial dilution was transferred from source plate to the corresponding wells of the intermediate plate. 45 μl of 1× kinase base buffer (KB buffer) was added to each well of the intermediate plate. The intermediate plate was placed for 10 min on a shaker.
5 μl of each well was transferred from the 96-well intermediate plate to a 384-well plate in duplicates. For example, A1 of the 96-well plate is transferred to A1 and A2 of the 384-well plate. A2 of the 96-well plate is transferred to A3 and A4 of the 384-well plate, and so on.
IRAK4 and DTT in 1× kinase base buffer was added. The 2.5× enzyme mix contained 8.8 nM IRAK4 and 5 mM DTT.
Peptide 8, ATP, MgCl2 and MnCl2 were added in the 1× kinase base buffer. The 2.5× peptide mix contained 3.75 μM peptide 8, 92.5 μM ATP, 12.5 mM MgCl2 and 2.5 mM MnCl2.
Assay plate already contained 5 μl of compound in 10% DMSO. Added 10 μl of 2.5× enzyme solution to each well of the 384-well assay plate, except no enzyme control wells. The final concentration of IRAK4 in reaction was 3.5 nM. Added 10 μl of 1× kinase base buffer to no enzyme control wells in the assay plate. Incubated at room temperature for 10 min.
Added 10 μl of 2.5× peptide solution to each well of the 384-well assay plate. The final concentration of Peptide 8 and ATP was 1.5 μM and 37 μM, respectively. Incubated at 28° C. for 40 minutes. Added 25 μl of stop buffer to stop reaction. Collected data on Caliper.
Copied conversion % data from Caliper program. Converted conversion % values to percent inhibition values. Percent inhibition=(max-conversion %)/(max-min)*100, where “max” means the conversion % of DMSO control and “min” means the conversion % of no enzyme control.

[1] = tested on: IL8 production in THP-1 cells; assay: LPS induced IL8 production assay in THP-1 cells; format: cell-based; details: Homo sapiens, 300 ng/mL LPS
Procedure: (§1) Provided compounds were also assayed in an LPS (Lipopolysacharide) or R848 (TLR-7 agonist) induced cytokine (TNFα and IL8) production assay in THP-1 cells, human peripheral blood mononuclear cells (hPBMC), and whole blood. The exemplary protocol for this assay in THP-1 cells was as follows below.
(§2) THP-1 cells from ATCC (TIB-202) were cultured in RPMI Medium 1640 (Invitrogen, Cat No. A10491-01), 10% fetal bovine serum (Invitrogen, Cat No. 10099141, Lot No. 8172882) containing 100 U/mL Penicillin, 100 μg/mL streptomycin (Invitrogen, Cat No. 15140-122), and 50 uM 2-Mercaptoethanol (Invitrogen, Cat No. 21985023). LPS-EK ultra pure (Invivogen, Cat No. tlrl-peklps) was used to induce IL8 and TNFα production, that was detected in the cell culture supernatant by IL8 HTRF kit (Cisbio, Cat No. 62IL8PEB) and TNFα HTRF kit (Cisbio, Cat No. 62TNFPEB), as per manufacturer instructions. Cells were cultured in 96 well assay plates at 100,000 cells per well, and compounds diluted in final 0.3% DMSO were pre-incubated with cells for 1 hour prior to stimulation with 300 ng/mL LPS. Cytokine production in cell supernatant was measured at 5 hours for TNFα and IL8 production, and for 16 hours for IL8 production and assessment of cell viability.

[2] = tested on: TNFα production in THP-1 cells; assay: LPS induced TNFα production assay in THP-1 cells; format: cell-based; details: Homo sapiens, 300 ng/mL LPS
Procedure: as §1, §2

[3] = tested on: TNF-α production in whole blood; assay: In vitro R848-induced TNF-α production in whole blood; format: cell-based; details: Homo sapiens, R848 1 uM

Row | Structure (SMILES) | IC50 (IRAK4) [µM] | IC50 [1] [µM] | IC50 [2] [µM] | IC50 [3] [µM]
1 | CN1CCN(c2ccc(Nc3nc(O[C@H]4CC[C@H](N(C)C)CC4)c4c5c(sc4n3)CC[C@@H]5CC(N)=O)cc2)CC1 [Compound I-23] | ≤ 5 | ≥ 5 | 1 to 5 | –
2 | CN(C)[C@H]1CC[C@H](Oc2nc(Nc3ccccc3)nc3sc4c(c23)[C@@H](CC(N)=O)CC4)CC1 [Compound I-24, 2-[(3R)-10-(phenylamino)-12-[[(1r,4r)-4-(dimethylamino)cyclohexyl]oxy]-7-thia-9,11-diazatricyclo[6.4.0.0[2,6]]dodeca-1(8),2(6),9,11-tetraen-3-yl]acetamide] | ≤ 5 | ≤ 0.5 | ≤ 0.5 | –
3 | Cn1cc(Nc2nc(N[C@H]3CC[C@H](N4CCOCC4)CC3)c3c4c(sc3n2)CCC4)cn1 [Compound I-74, 10-N-(1-methyl-1H-pyrazol-4-yl)-12-N-[4-(morpholin-4-yl)cyclohexyl]-7-thia-9,11-diazatricyclo[6.4.0.0[2,6]]dodeca-1(8),2(6),9,11-tetraene-10,12-diamine] | ≤ 5 | ≤ 0.5 | ≤ 0.5 | –
4 | Cn1cc(Nc2nc(O[C@H]3CC[C@H](N4CCOCC4)CC3)c3c4c(sc3n2)CC[C@@H]4CC(N)=O)cn1 [Compound I-25] | ≤ 5 | – | – | ≥ 1
5 | CN(C)[C@H]1CC[C@H](Oc2nc(Nc3ccc(N4CCNCC4)cc3)nc3sc4c(c23)C(CC(N)=O)CC4)CC1 (stereo partly shown) [Compound I-18, 2-(12-[[4-(dimethylamino)cyclohexyl]oxy]-10-[[4-(piperazin-1-yl)phenyl]amino]-7-thia-9,11-diazatricyclo[6.4.0.0[2,6]]dodeca-1(12),2(6),8,10-tetraen-3-yl)acetamide] | ≤ 5 | – | – | –
6 | Cn1cc(Nc2nc(O[C@H]3CC[C@H](N(C)C)CC3)c3c4c(sc3n2)CC[C@H]4CC(N)=O)cn1 [Compound I-21, 2-[(3S)-12-[[4-(dimethylamino)cyclohexyl]oxy]-10-[(1-methyl-1H-pyrazol-4-yl)amino]-7-thia-9,11-diazatricyclo[6.4.0.0[2,6]]dodeca-1(8),2(6),9,11-tetraen-3-yl]acetamide] | ≤ 5 | – | – | –
7 | Cn1cc(Nc2nc(O[C@H]3CC[C@H](N(C)C)CC3)c3c4c(sc3n2)CCC4)cn1 [Compound I-14, 12-[[4-(dimethylamino)cyclohexyl]oxy]-N-(1-methyl-1H-pyrazol-4-yl)-7-thia-9,11-diazatricyclo[6.4.0.0[2,6]]dodeca-1(8),2(6),9,11-tetraen-10-amine] | ≤ 5 | ≤ 0.5 | ≤ 0.5 | –
8 | CN1CCN(c2ccc(Nc3nc(O[C@H]4CC[C@H](N(C)C)CC4)c4c5c(sc4n3)CCC5CC(N)=O)cc2)CC1 (stereo partly shown) [Compound I-19, 2-(4-(((1r,4r)-4-(dimethylamino)cyclohexyl)oxy)-2-((4-(4-methylpiperazin-1-yl)phenyl)amino)-6,7-dihydro-5H-cyclopenta[4,5]thieno[2,3-d]pyrimidin-5-yl)acetamide] | ≤ 5 | ≥ 5 | – | –
9 | Cn1cc(Nc2nc(N[C@H]3CC[C@H](N(C)C)CC3)c3c4c(sc3n2)CCC4)cn1 [Compound I-72, 12-N-[4-(dimethylamino)cyclohexyl]-10-N-(1-methyl-1H-pyrazol-4-yl)-7-thia-9,11-diazatricyclo[6.4.0.0[2,6]]dodeca-1(8),2(6),9,11-tetraene-10,12-diamine] | ≤ 5 | ≤ 0.5 | ≤ 0.5 | –

Second part, the compound after the results:

Row | IC50 (IRAK4) [µM] | IC50 [1] [µM] | IC50 [2] [µM] | IC50 [3] [µM] | Structure (SMILES)
10 | ≤ 5 | ≤ 0.5 | ≤ 0.5 | – | c1nocc1Nc1nc(N[C@H]2CC[C@H](N3CCOCC3)CC2)c2c3c(sc2n1)CCC3 [Compound I-77]
11 | ≤ 5 | 1 to 5 | 1 to 5 | – | CN(C)[C@H]1CC[C@H](Nc2nc(Nc3ccccc3)nc3sc4c(c23)CCC4)CC1 [Compound I-75, 12-N-[4-(dimethylamino)cyclohexyl]-10-N-phenyl-7-thia-9,11-diazatricyclo[6.4.0.0[2,6]]dodeca-1(8),2(6),9,11-tetraene-10,12-diamine]
12 | ≤ 5 | ≤ 0.5 | ≤ 0.5 | – | c1nscc1Nc1nc(N[C@H]2CC[C@H](N3CCOCC3)CC2)c2c3c(sc2n1)CCC3 [Compound I-76]
13 | ≤ 5 | ≤ 0.5 | 0.5 to 1 | – | Cn1cc(Nc2nc(O[C@H]3CC[C@H](N4CCOCC4)CC3)c3c4c(sc3n2)CCC4)cn1 [Compound I-73, N-(1-methyl-1H-pyrazol-4-yl)-12-[[4-(morpholin-4-yl)cyclohexyl]oxy]-7-thia-9,11-diazatricyclo[6.4.0.0[2,6]]dodeca-1(8),2(6),9,11-tetraen-10-amine]
14 | 20 to 50 | – | – | – | c1c[nH]c(Nc2nc(N[C@H]3CC[C@H](N4CCOCC4)CC3)c3c4c(sc3n2)CCCC4)n1 [Compound I-12, 5-N-(1H-imidazol-2-yl)-3-N-[4-(morpholin-4-yl)cyclohexyl]-8-thia-4,6-diazatricyclo[7.4.0.0[2,7]]trideca-1(9),2(7),3,5-tetraene-3,5-diamine]
15 | ≤ 5 | – | – | ≥ 1 | Cn1cc(Nc2nc(O[C@H]3CC[C@H](N(C)C)CC3)c3c4c(sc3n2)CC[C@@H]4CC(N)=O)cn1 [Compound I-22, 2-[(3R)-12-[[4-(dimethylamino)cyclohexyl]oxy]-10-[(1-methyl-1H-pyrazol-4-yl)amino]-7-thia-9,11-diazatricyclo[6.4.0.0[2,6]]dodeca-1(8),2(6),9,11-tetraen-3-yl]acetamide]
16 | ≤ 5 | – | – | – | CN1CCN(c2ccc(Nc3nc(O[C@H]4CC[C@H](N(C)C)CC4)c4c5c(sc4n3)CCC5)cc2)CC1 [Compound I-68, 12-[[4-(dimethylamino)cyclohexyl]oxy]-N-[4-(4-methylpiperazin-1-yl)phenyl]-7-thia-9,11-diazatricyclo[6.4.0.0[2,6]]dodeca-1(8),2(6),9,11-tetraen-10-amine]

Source: patent US9175007B2, “IRAK inhibitors and uses thereof” (Nimbus Iris, Inc., priority 2013, dated 2015)
